In patent US20170007610A1, “NOVEL HETEROBICYCLIC COMPOUNDS AS KAPPA OPIOID AGONISTS” (priority 2014, published 2017):
Read-outs that look alike come from different tables or passages of the source.

How the values were obtained:
[1] = molecular target: T1, kappa opioid receptor (Homo sapiens, UniProt P41145); assay: Invitro KOR agonistic activity, cAMP based functional assay; format: cell-based
T1 construct: grown in complete Ham's F-12 medium

[2] = molecular target: T2, kappa opioid receptor (Mus musculus, UniProt P33534); assay: Ex-vivo KOR agonistic activity, electrically stimulated mouse vas deferens (MVD) model
T2 construct: from tissue; host or cells: mouse vas deferens (male Swiss Albino mice)
T2 sequence (P33534 whole entry): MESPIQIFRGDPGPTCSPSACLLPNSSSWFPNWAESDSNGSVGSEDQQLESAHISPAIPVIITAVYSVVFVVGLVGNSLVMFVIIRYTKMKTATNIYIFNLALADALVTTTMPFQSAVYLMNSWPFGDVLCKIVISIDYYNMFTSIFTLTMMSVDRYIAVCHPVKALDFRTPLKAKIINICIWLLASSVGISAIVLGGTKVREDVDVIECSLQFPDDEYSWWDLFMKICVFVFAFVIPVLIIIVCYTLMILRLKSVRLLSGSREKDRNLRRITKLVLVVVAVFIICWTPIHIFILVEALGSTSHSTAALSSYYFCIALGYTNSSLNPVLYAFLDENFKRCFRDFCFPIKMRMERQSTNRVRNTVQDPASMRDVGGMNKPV
Protocol: a) Ex-Vivo KOR Agonistic Activity Testing, Using Electrically Stimulated Mouse Vas Deferens (MVD) Model:
Ex-vivo, the kappa opioid receptor agonistic activity of test compounds were tested on the electrically stimulated mouse vas deferens (MVD) preparations (Henderson et al., Br. J. Pharmacol., 46, 764-766, 1972; Portoghese et al., Life Sci. 36, 801-805, 1985) and IC50 were determined. In general, vas deferentia were taken from male Swiss Albino mice (30-40 g) and suspended in 8 ml organ baths, at 31° C., containing modified Krebs-Henseleit solution, without magnesium sulphate. Each vas deferens was equilibrated for 45 min at 2.6 mN tension and then stimulated at supramaximal voltage with five 1 ms pulses, at a frequency of 0.1 Hz. Concentration-response curves were determined by cumulative dosing. Inhibitory Concentration, 50% (IC50) values were determined by Sigmoidal dose-response (variable slope) equation, using Prizm v 6.01. The kappa opioid receptor specificity was determined by rightward shift in concentration-response curves in presence of 1 nM norbinaltorphimine (norBNI), a selective kappa opioid receptor antagonist.

T1 sequence (P41145 whole entry): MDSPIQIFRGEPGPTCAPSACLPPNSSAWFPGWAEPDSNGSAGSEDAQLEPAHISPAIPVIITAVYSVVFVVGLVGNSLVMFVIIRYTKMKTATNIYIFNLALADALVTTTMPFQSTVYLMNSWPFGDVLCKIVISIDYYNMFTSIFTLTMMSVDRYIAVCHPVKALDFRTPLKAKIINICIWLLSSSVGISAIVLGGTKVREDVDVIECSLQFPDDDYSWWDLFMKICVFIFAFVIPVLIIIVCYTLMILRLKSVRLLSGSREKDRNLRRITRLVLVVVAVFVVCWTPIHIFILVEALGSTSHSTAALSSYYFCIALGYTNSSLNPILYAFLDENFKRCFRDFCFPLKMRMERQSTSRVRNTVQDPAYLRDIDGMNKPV

SMILES | EC50 [1] | IC50 [2] | IC50 ([2]; electrically stimulated mouse vas deferens preparation, cumulative dosing, read-out: Ex-vivo IC50)
CN(C(=O)COc1ccc2ccccc2n1)[C@H](CN1CC[C@H](O)C1)c1ccccc1 [Compound 1, N-((S)-2-((S)-3-hydroxypyrrolidin-1-yl)-1-phenylethyl)-N-methyl-2-(quinolin-2-yloxy)acetamide] | 0.022 nM | 3.5 nM | 
CN(C(=O)COc1ccc2cc(NS(C)(=O)=O)ccc2n1)[C@H](CN1CC[C@H](O)C1)c1ccccc1 [Compound 2, N-((S)-2-((S)-3-hydroxypyrrolidin-1-yl)-1-phenylethyl)-N-methyl-2-((6-methylsulfonamido)quinolin-2-yloxy)acetamide] | 4.93 nM | 2590 nM | 
CN(C(=O)COc1cc(NS(C)(=O)=O)c2ccccc2n1)[C@H](CN1CC[C@H](O)C1)c1ccccc1 [Compound 3, N-((S)-2-((S)-3-hydroxypyrrolidin-1-yl)-1-phenylethyl)-N-methyl-2-((4-methylsulfonamido)quinolin-2-yloxy)acetamide] | 0.035 nM | 414 nM | 
CN(C(=O)COc1ccnc2ccc(NS(C)(=O)=O)cc12)[C@H](CN1CC[C@H](O)C1)c1ccccc1 [Compound 4, N-((S)-2-((S)-3-hydroxypyrrolidin-1-yl)-1-phenylethyl)-N-methyl-2-((6-methylsulfonamido)quinolin-4-yloxy)acetamide] | 1.21 nM | 1500 nM | 
CN(C(=O)COc1ccc(NS(C)(=O)=O)c2ncccc12)[C@H](CN1CC[C@H](O)C1)c1ccccc1 [Compound 5, N-((S)-2-((S)-3-hydroxypyrrolidin-1-yl)-1-phenylethyl)-N-methyl-2-((8-methylsulfonamido)quinolin-5-yloxy)acetamide] | 0.013 nM | 5.6 nM | 
CN(C(=O)COc1ccc([N+](=O)[O-])c2cccnc12)[C@H](CN1CC[C@H](O)C1)c1ccccc1 [Compound 7, N-((S)-2-((S)-3-hydroxypyrrolidin-1-yl)-1-phenylethyl)-N-methyl-2-((5-nitroquinolin-8-yl)oxy)acetamide] | 0.015 nM | 0.84 nM | 
CN(C(=O)COc1ccc([N+](=O)[O-])c2c1NCCC2)[C@H](CN1CC[C@H](O)C1)c1ccccc1 [Compound 8, N-((S)-2-((S)-3-hydroxypyrrolidin-1-yl)-1-phenylethyl)-N-methyl-2-((5-nitroquinolin-1,2,3,4-tetrahydroquinolin-8-yl)oxy)acetamide] | 0.018 nM | 6.2 nM | 
CN(C(=O)COc1nccc2ccccc12)[C@H](CN1CC[C@H](O)C1)c1ccccc1 [Compound 9, N-((S)-2-((S)-3-hydroxypyrrolidin-1-yl)-1-phenylethyl)-2-(isoquinolin-1-yloxy)-N-methylacetamide] | 0.012 nM | 13 nM | 
CN(C(=O)COc1ncc(NS(C)(=O)=O)c2ccccc12)[C@H](CN1CC[C@H](O)C1)c1ccccc1 [Compound 10, N-((S)-2-((S)-3-hydroxypyrrolidin-1-yl)-1-phenylethyl)-N-methyl-2-((4-methylsulfonamido)isoquinolin-1-yloxy)acetamide] | 0.089 nM | 54 nM | 
CN(C(=O)COc1cccc2c1NCCC2)[C@H](CN1CC[C@H](O)C1)c1ccccc1 [Compound 11, N-((S)-2-((S)-3-hydroxypyrrolidin-1-yl)-1-phenylethyl)-N-methyl-2-(1,2,3,4-tetrahydroquinolin-8-yloxy)acetamide] | 0.004 nM | 1.6 nM | 
CN(C(=O)COc1cccc2c1N(S(C)(=O)=O)CCC2)[C@H](CN1CC[C@H](O)C1)c1ccccc1 [Compound 12, N-((S)-2-((S)-3-hydroxypyrrolidin-1-yl)-1-phenylethyl)-N-methyl-2-((1-(methylsulfonyl)-1,2,3,4-tetrahydroquinolin-8-yl)oxy)acetamide] | 0.005 nM | 2 nM | 
CN1CCCc2cccc(OCC(=O)N(C)[C@H](CN3CC[C@H](O)C3)c3ccccc3)c21 [Compound 13, N-((S)-2-((S)-3-hydroxypyrrolidin-1-yl)-1-phenylethyl)-N-methyl-2-((1-methyl-1,2,3,4-tetrahydroquinolin-8-yl)oxy)acetamide] | 0.91 nM | 125 nM | 
CN(C(=O)COc1ccc(NS(C)(=O)=O)c2c1NCCC2)[C@H](CN1CC[C@H](O)C1)c1ccccc1 [Compound 14, N-((S)-2-((S)-3-hydroxypyrrolidin-1-yl)-1-phenylethyl)-N-methyl-2-((5-(methylsulfonamido)-1,2,3,4-tetrahydroquinolin-8-yl)oxy)acetamide] | 0.012 nM | 5.4 nM | 
CN(C(=O)COc1ccc2occc2c1)[C@H](CN1CC[C@H](O)C1)c1ccccc1 [Compound 16] | 0.04 nM | 4 nM | 
CN(C(=O)COc1ccc2ccoc2c1)[C@H](CN1CC[C@H](O)C1)c1ccccc1 [Compound 17, 2-(benzofuran-6-yloxy)-N-((S)-2-((S)-3-hydroxypyrrolidin-1-yl)-1-phenylethyl)-N-methylacetamide] | 0.012 nM | 7 nM | 
CN(C(=O)COc1ccc2c(c1)OCC2)[C@H](CN1CC[C@H](O)C1)c1ccccc1 [Compound 18, 2-((2,3-dihydrobenzofuran-6-yl)oxy)-N-((S)-2-((S)-3-hydroxypyrrolidin-1-yl)-1-phenylethyl)-N-methylacetamide] | 0.07 nM | 8.2 nM | 
CN(C(=O)COc1ccc2ncccc2c1)[C@H](CN1CC[C@H](O)C1)c1ccccc1 [Compound 19, N-((S)-2-((S)-3-hydroxypyrrolidin-1-yl)-1-phenylethyl)-N-methyl-2-(quinolin-6-yloxy)acetamide] | 1.31 nM | 135 nM | 
CN(C(=O)COc1ccc2c(c1)CCCN2)[C@H](CN1CC[C@H](O)C1)c1ccccc1 [Compound 21, N-((S)-2-((S)-3-hydroxypyrrolidin-1-yl)-1-phenylethyl)-N-methyl-2-((1,2,3,4-tetrahydroquinolin-6-yl)oxy)acetamide] | 1.23 nM | 570 nM | 
CNS(=O)(=O)Nc1ccc(OCC(=O)N(C)[C@H](CN2CC[C@H](O)C2)c2ccccc2)c2cccnc12 [Compound 23, N-((S)-2-((S)-3-hydroxypyrrolidin-1-yl)-1-phenylethyl)-N-methyl-2-((8-((N-methylsulfamoyl)amino)quinolin-5-yl)oxy)-acetamide] | 0.017 nM | 8.4 nM | 
CN(C(=O)COc1ccc(NS(=O)(=O)N(C)C)c2ncccc12)[C@H](CN1CC[C@H](O)C1)c1ccccc1 [Compound 24, 2-((8-((N,N-dimethylsulfamoyl)amino)quinolin-5-yl)oxy)-N-((S)-2-((S)-3-hydroxypyrrolidin-1-yl)-1-phenylethyl)-N-methyl-acetamide] | 0.055 nM | 5 nM | 
CCN(CC)S(=O)(=O)Nc1ccc(OCC(=O)N(C)[C@H](CN2CC[C@H](O)C2)c2ccccc2)c2cccnc12 [Compound 25, 2-((8-((N,N-diethylsulfamoyl)amino)quinolin-5-yl)oxy)-N-((S)-2-((S)-3-hydroxypyrrolidin-1-yl)-1-phenylethyl)-N-methyl-acetamide] | 0.003 nM | 8.1 nM | 
CN(C(=O)COc1ccc(NS(=O)(=O)CCl)c2ncccc12)[C@H](CN1CC[C@H](O)C1)c1ccccc1 [Compound 26] | 0.012 nM | 29 nM | 
CN(C(=O)COc1ccc(NS(C)(=O)=O)c2nccnc12)[C@H](CN1CC[C@H](O)C1)c1ccccc1 [Compound 27, N-((S)-2-((S)-3-hydroxypyrrolidin-1-yl-)-1-phenylethyl)-N-methyl-2-((8-(methylsulfonamido)quinoxain-5-yl)oxy)acetamide] | 2.11 nM | 169 nM | 
CN(C(=O)COc1ncc2ccc(Br)cc2n1)[C@H](CN1CC[C@H](O)C1)c1ccccc1 [Compound 28, 2-((7-bromoquinazolin-2-yl)oxy)-N-((S)-2-((S)-3-hydroxypyrrolidin-1-yl)-1-phenylethyl)-N-methylacetamide] | 1.42 nM | 1490 nM | 
CN(C(=O)COc1cccc2c1NCC2)[C@H](CN1CC[C@H](O)C1)c1ccccc1 [Compound 29, N-((S)-2-((S)-3-hydroxypyrrolidin-1-yl-)-1-phenylethyl)-2-(indolin-7-yloxy)-N-methylacetamide] | 0.11 nM | 147 nM | 
CN(C(=O)COc1ccc2c3c1CCCN3S(=O)(=O)N2)[C@H](CN1CC[C@H](O)C1)c1ccccc1 [Compound 30] | 900 nM |  | 9400 nM
CC(=O)N1CCCc2c(OCC(=O)N(C)[C@H](CN3CC[C@H](O)C3)c3ccccc3)ccc(NS(C)(=O)=O)c21 [Compound 31, 2-((l-acetyl-8-(methylsulfonamido)-1,2,3,4-tetrahydroquinolin-5-yl)oxy)-N-((S)-2-((S)-3-hydroxypyrrolidin-1-yl)-1-phenylethyl)-N-methylacetamide] | 0.51 nM | 118 nM | 
CN(C(=O)COc1ccc(NC(=O)CN)c2ncccc12)[C@H](CN1CC[C@H](O)C1)c1ccccc1 [Compound 33, 2-((8-(2-aminoacetamido)quinolin-5-yl)oxy)-N-((S)-2-((S)-3-hydroxypyrrolidin-1-yl)-1-phenylethyl)-N-methylacetamide] | 0.006 nM | 8.4 nM | 
CN(C(=O)COc1ccc(NC(=O)CO)c2ncccc12)[C@H](CN1CC[C@H](O)C1)c1ccccc1 [Compound 34, 2-((8-(2-hydroxyacetamido)quinolin-5-yl)oxy)-N-((S)-2-((S)-3-hydroxypyrrolidin-1-yl)-1-phenylethyl)-N-methylacetamide] | 0.49 nM | 258 nM | 
